# Measurements taken from ChEMBL document CHEMBL1201862, “PubChem BioAssay data set” (2004).
#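 96-well plates; 48 h exposure; 5 concentrations. Endpoints by linear interpolation between flanking doses. Not reached: highest tested concentration assigned. The concentration for 50% growth inhibition is given as GI50.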 Activity calls are given as the source filed them. No stated cut-off is given here; in the data, active = GI50 up to about 1.1 µM and inactive = higher.
# Columns and labels:
# Assay in all cases: growth of human tumour cells (NCI), 48 h
# [1] = system: 786-0
# [2] = system: A549
# [3] = system: CAKI-1
# [4] = system: DU-145
# [5] = system: HOP-92
# [6] = system: HT-29
# [7] = system: KM12
# [8] = system: MOLT-4
# [9] = system: SF-268
# [10] = system: SK-MEL-28
# [11] = system: SK-MEL-5
# [12] = system: SN12C
# [13] = system: SNB-19
# [14] = system: SR
# [15] = system: SW-620
# [16] = system: T47D
# [17] = system: UO-31
# [18] = system: CCRF-CEM
# [19] = system: BT-549
SMILES,GI50 [1],GI50 [2],GI50 [3],GI50 [4],GI50 [5],GI50 [6],GI50 [7],GI50 [8],GI50 [9],GI50 [10],GI50 [11],GI50 [12],GI50 [13],GI50 [14],GI50 [15],GI50 [16],GI50 [17],GI50 [18],GI50 [19]
COc1c(-c2cc(C)c(Cl)c(=O)[nH]2)c(O)c(OC)c2occc12,> 100 µM (inactive),> 100 µM (inactive),> 100 µM (inactive),> 100 µM (inactive),23.1 µM (inactive),> 100 µM (inactive),> 100 µM (inactive),> 100 µM (inactive),97.1 µM (inactive),> 100 µM (inactive),78.3 µM (inactive),> 100 µM (inactive),96.4 µM (inactive),81.8 µM (inactive),> 100 µM (inactive),> 100 µM (inactive),38.5 µM (inactive),,
COc1ccc(/C(C)=C2\CCCN(Cc3ccccc3)C2)cc1,19.2 µM (inactive),32 µM (inactive),22.6 µM (inactive),34.6 µM (inactive),17.7 µM (inactive),18.9 µM (inactive),17 µM (inactive),24.4 µM (inactive),17.4 µM (inactive),22 µM (inactive),17.5 µM (inactive),,22.9 µM (inactive),20.4 µM (inactive),19.1 µM (inactive),22.5 µM (inactive),19.9 µM (inactive),20.2 µM (inactive),
CC(=O)N(C(C)=O)C1=C2c3ccccc3N(S(=O)(=O)c3ccccc3)C2n2c(=O)n(-c3ccccc3)c(=O)n2C1 (centres undefined),38.6 µM (inactive),65.6 µM (inactive),27.5 µM (inactive),,24.2 µM (inactive),59 µM (inactive),34.7 µM (inactive),,> 100 µM (inactive),30 µM (inactive),27 µM (inactive),69.7 µM (inactive),30.3 µM (inactive),5.78 µM (inactive),40.6 µM (inactive),,29.7 µM (inactive),35 µM (inactive),
COc1cc(CNc2nc3ccccc3n2Cc2ccccc2)cc(CN2CCOCC2)c1O,16.7 µM (inactive),47.5 µM (inactive),26.2 µM (inactive),80.9 µM (inactive),12.1 µM (inactive),23.3 µM (inactive),34.8 µM (inactive),53.8 µM (inactive),59.8 µM (inactive),18.4 µM (inactive),18.6 µM (inactive),44.2 µM (inactive),61.8 µM (inactive),,45.6 µM (inactive),> 100 µM (inactive),18.2 µM (inactive),28.3 µM (inactive),
Cc1ccc(S(=O)(=O)Nn2c(S)c(C#N)c(-c3ccc(Cl)cc3)c(C#N)c2=O)cc1,32.6 µM (inactive),43.7 µM (inactive),32.7 µM (inactive),52.2 µM (inactive),59 µM (inactive),,36.2 µM (inactive),24.7 µM (inactive),,31.2 µM (inactive),16.4 µM (inactive),25.7 µM (inactive),35.4 µM (inactive),29.7 µM (inactive),22.4 µM (inactive),,19.1 µM (inactive),7.93 µM (inactive),17.3 µM (inactive)
CC(=O)Nc1ccc2cc3c(nc2n1)c1cccnc1n3S(=O)(=O)c1ccccc1,8.02 µM (inactive),> 100 µM (inactive),> 100 µM (inactive),,> 100 µM (inactive),> 100 µM (inactive),> 100 µM (inactive),> 100 µM (inactive),> 100 µM (inactive),> 100 µM (inactive),> 100 µM (inactive),> 100 µM (inactive),> 100 µM (inactive),28.3 µM (inactive),> 100 µM (inactive),,0.195 µM (active),> 100 µM (inactive),> 100 µM (inactive)
CCOC(=O)C(Cc1ccc2c(c1)CCC2)Cc1ccc2c(c1)CCC2,> 100 µM (inactive),> 100 µM (inactive),> 100 µM (inactive),> 100 µM (inactive),> 100 µM (inactive),45.9 µM (inactive),,16.9 µM (inactive),> 100 µM (inactive),> 100 µM (inactive),18.5 µM (inactive),,> 100 µM (inactive),25.1 µM (inactive),> 100 µM (inactive),53.1 µM (inactive),78 µM (inactive),27.1 µM (inactive),
Cc1c(-c2ccccc2)n(C)c2cn[nH]c(=O)c12,23.3 µM (inactive),44.8 µM (inactive),49.5 µM (inactive),67.8 µM (inactive),81.1 µM (inactive),26.1 µM (inactive),37.5 µM (inactive),32.7 µM (inactive),37.5 µM (inactive),47.3 µM (inactive),17.3 µM (inactive),,> 100 µM (inactive),27 µM (inactive),47.1 µM (inactive),,44.1 µM (inactive),40.2 µM (inactive),32.3 µM (inactive)
O=C(Nc1ccc(Cl)cc1)NS(=O)(=O)c1c(-c2ccccc2)oc2ccccc2c1=O,> 100 µM (inactive),39 µM (inactive),52.1 µM (inactive),27.9 µM (inactive),89.3 µM (inactive),57.8 µM (inactive),36.2 µM (inactive),98.6 µM (inactive),> 100 µM (inactive),> 100 µM (inactive),> 100 µM (inactive),> 100 µM (inactive),> 100 µM (inactive),24.2 µM (inactive),> 100 µM (inactive),48 µM (inactive),38.5 µM (inactive),33.9 µM (inactive),
CN(C)Nc1cc(=O)[nH]c(=O)[nH]1,> 100 µM (inactive),> 100 µM (inactive),,> 100 µM (inactive),> 100 µM (inactive),> 100 µM (inactive),> 100 µM (inactive),> 100 µM (inactive),> 100 µM (inactive),> 100 µM (inactive),> 100 µM (inactive),> 100 µM (inactive),> 100 µM (inactive),> 100 µM (inactive),> 100 µM (inactive),,> 100 µM (inactive),> 100 µM (inactive),> 100 µM (inactive)
O=C(n1c(=O)n(-c2ccc([N+](=O)[O-])cc2)c(=O)n1C(=O)C(Cl)(Cl)Cl)C(Cl)(Cl)Cl,> 100 µM (inactive),> 100 µM (inactive),> 100 µM (inactive),> 100 µM (inactive),,> 100 µM (inactive),> 100 µM (inactive),> 10 µM (inactive),> 100 µM (inactive),> 100 µM (inactive),> 100 µM (inactive),> 100 µM (inactive),> 100 µM (inactive),,> 100 µM (inactive),> 100 µM (inactive),> 100 µM (inactive),> 100 µM (inactive),> 100 µM (inactive)
O=c1c2c(-c3ccccc3)onc2n(-c2ccccc2)c(=O)n1-c1ccccc1,> 100 µM (inactive),> 100 µM (inactive),> 100 µM (inactive),,> 100 µM (inactive),21 µM (inactive),17.9 µM (inactive),> 100 µM (inactive),30.1 µM (inactive),,> 100 µM (inactive),> 100 µM (inactive),27.4 µM (inactive),> 100 µM (inactive),> 100 µM (inactive),> 100 µM (inactive),14.9 µM (inactive),> 100 µM (inactive),19.2 µM (inactive)
O=C(/C=C/c1ccc(O)cc1)c1ccc2c(c1)OCO2,18 µM (inactive),19.4 µM (inactive),4.56 µM (inactive),33.4 µM (inactive),22.4 µM (inactive),13.4 µM (inactive),17 µM (inactive),13.5 µM (inactive),23.8 µM (inactive),20.9 µM (inactive),16 µM (inactive),15.9 µM (inactive),17.1 µM (inactive),10.2 µM (inactive),19.1 µM (inactive),26.6 µM (inactive),18.1 µM (inactive),1.21 µM (inactive),
COc1cc(C2=NNC(=O)c3ccccc3N2c2nc(-c3cccs3)nc3ccc(Br)cc23)cc(OC)c1OC,6.95 µM (inactive),18.6 µM (inactive),15.3 µM (inactive),14.7 µM (inactive),4.83 µM (inactive),7.73 µM (inactive),4.8 µM (inactive),,8.91 µM (inactive),13.3 µM (inactive),10.5 µM (inactive),18.9 µM (inactive),22.6 µM (inactive),,18.4 µM (inactive),15.1 µM (inactive),16.1 µM (inactive),1.45 µM (inactive),32.8 µM (inactive)
Cc1cc(C)c(S(=O)(=O)N2CCCN(S(=O)(=O)c3c(C)cc(C)cc3C)OCCCON(S(=O)(=O)c3c(C)cc(C)cc3C)CCCN(S(=O)(=O)c3c(C)cc(C)cc3C)OCCCO2)c(C)c1,> 100 µM (inactive),> 100 µM (inactive),> 100 µM (inactive),> 100 µM (inactive),36.1 µM (inactive),> 100 µM (inactive),> 100 µM (inactive),> 100 µM (inactive),> 100 µM (inactive),> 100 µM (inactive),> 100 µM (inactive),,> 100 µM (inactive),> 100 µM (inactive),> 100 µM (inactive),,> 100 µM (inactive),> 100 µM (inactive),> 100 µM (inactive)
N#CCC(=O)Nc1ccccc1O,> 100 µM (inactive),> 100 µM (inactive),> 100 µM (inactive),,> 100 µM (inactive),> 100 µM (inactive),> 100 µM (inactive),> 100 µM (inactive),> 100 µM (inactive),> 100 µM (inactive),> 100 µM (inactive),> 100 µM (inactive),> 100 µM (inactive),> 100 µM (inactive),> 100 µM (inactive),,> 100 µM (inactive),> 100 µM (inactive),
